Experiments:
[1] = test system: Normal Human Epidermal Keratinocytes (NHEK) and Normal Human Epidermal Melanocytes, Lightly Pigmented (NHEM-LP) co-culture; experiment: Synthesis of melanin in NHEK/NHEM-LP co-culture; assay type: cell-based; conditions: 240 hours (10 days) incubation, melanin extracted with 0.5 N NaOH, OD 405 nm, triple determination
Experimental: Evaluation of the Synthesis of Melanin in a Cell Culture Model Containing Two Cell Types (Co-Culture), Firstly Normal Human Epidermal Keratinocytes (NHEK) and Secondly Normal Human Epidermal Melanocytes, Lightly Pigmented (NHEM-LP)
The two cell types NHEK and NHEM-LP (NHEK:NHEM-LP) are employed in a ratio of 2:1.
The culture medium consists of the media keratinocyte-SFM (2 parts by volume) and medium M254 (1 part by volume).
Keratinocyte-SFM contains 0.25 ng/ml of epidermal growth factor (EGF), 25 μg/ml of pituitary extract (PE) and 25 μg/ml of gentamycin and was purchased from Thermo Fisher Scientific.
M254 contains PMA-free HMGS-2, 5 μg/ml of insulin, 50 U/ml of penicillin, 50 μg/ml of streptomycin and 25 μg/ml of gentamycin and was purchased from Thermo Fisher Scientific.
IBMX denotes the compound 3-isobutyl-1-methylxanthine.
Cell Culture and Treatment
NHEK and NHEM-LP were incubated in the culture medium in microtitre plates (24-well plates) for 24 hours (37° C., 5% CO2). The culture medium was removed and replaced by an assay medium which contained the culture medium and compounds Ib and Id to be tested or alternatively no test substance, the reference L-tyrosine (1 mM), 200 μM of IBMX or the solvent control 0.1% of THF, 0.15% of THF, 0.1% of DMSO, 0.15% of DMSO, 0.17% of DMSO. Compound Ib was added as solution (0.15% in DMSO). Compound Id was added as solution (0.15% in THF). After replacement of the assay medium, the cells were incubated again for 240 hours (10 days). On days 3 and 7, assay medium was again added. All experimental investigations were carried out using a triple determination. After the end of the incubation, the melanin was extracted by cell lysis with 0.5 N NaOH. The optical density (OD) of each sample was measured at 405 nm. The melanin quantity was calculated from melanin standards (standard curve 0.39 to 100 μg/ml of melanin).

[2] = test system: 3D melanized reconstructed human epidermis (RHEs-MEL); experiment: Tanning properties in vitro on reconstructed epidermis; assay type: cell-based; conditions: systemic treatment in culture medium for 10 days, positive control IBMX 100 μM
Experimental: Evaluation of the Tanning Properties In Vitro on Reconstructed Epidermis
In this study, the tanning properties of compound Id are investigated in vitro on 3D melanized reconstructed human epidermis (RHEs-MEL). The compound IBMX (3-isobutyl-1-methylxanthine) 100 μM is employed as positive control. Compound Id is employed 20 μM and […]. Untreated reconstructed skin is used as negative control. The in vitro skin is treated systemically with the compounds to be investigated in a culture medium for 10 days and then analysed.

CCCCN1C(=O)NC(=O)C(Cc2ccccc2)C1=O (centres unmarked) [Compound Id, 5-benzyl-1-butylpyrimidine-2,4,6-trione]
stimulation of melanin synthesis ([1]; 20 μM): 17% | stimulation of melanin synthesis ([1]; 45 μM): 25% | tanning properties (reduction of the ITA value and visual colour difference) compared with IBMX ([2]; 20 μM): comparably good properties as IBMX at 100 μM | tanning properties (reduction of the ITA value and visual colour difference) compared with IBMX [2]: comparably good properties as IBMX at 100 μM

COc1ccc(CC2C(=O)NC(=O)NC2=O)cc1 [Compound Ib, 5-(4-methoxybenzyl)pyrimidine-2,4,6-trione]
stimulation of melanin synthesis ([1]; 45 μM): 20%
